# Laboratory results from article PMC11314063, “Inhibition of DNA Topoisomerase Ι by Flavonoids and Polyacetylenes Isolated from Bidens pilosa L” (Molecules, 2024).
# Where two headings read alike, the source gives them in different places.
# Tests used:
# [1] = test system: A549; assay: SRB cytotoxicity assay, A549; type: cell-based; settings: Homo sapiens, read-out: IC50 Cytotoxicity A549
# Source text: (§1) The cell lines MDA-MB-231 (No. TCHu227), A549 (No. TCHu150), and HepG2 (No. TCHu72) were obtained from the Cell Bank/Stem Cell Bank, Chinese Academy of Sciences (Shanghai, China). The cell lines DLD-1 (No. CC0507) and HCT116 (No. CC0506) were obtained from the Cell Bank of Cellcook Biotech Co., Ltd. (Guangzhou, China). Cell line HL-7702 (No. BNCC338358) was obtained from Bena Culture Collection (Zhengzhou, China).
# (§2) The human cancer cell lines MDA-MB-231 (breast adenocarcinoma), DLD-1 (colorectal adenocarcinoma), A549 (lung epithelial carcinoma), HCT116 (colorectal adenocarcinoma), HepG2 (hepatocellular carcinoma), and human hepatocyte HL-7702 were cultured in Dulbecco’s modified eagle medium (DMEM, Biological Industries, Beit Haemek, Israel) containing 10% (v/v) fetal bovine serum (FBS, Biological Industries, Beit Haemek, Israel) at 37 °C in a humidified incubator (ThermoFisher, Carlsbad, CA, USA) with a 5% CO2 atmosphere.
# [2] = test system: HCT116; assay: SRB cytotoxicity assay, HCT116; type: cell-based; settings: Homo sapiens, read-out: IC50 Cytotoxicity HCT116
# Source text: as §1, §2
# [3] = test system: MDA-MB-231; assay: SRB cytotoxicity assay, MDA-MB-231; type: cell-based; settings: Homo sapiens, read-out: IC50 Cytotoxicity MDA-MB-231
# Source text: as §1, §2
# [4] = test system: HepG2; assay: SRB cytotoxicity assay, HepG2; type: cell-based; settings: Homo sapiens, read-out: IC50 Cytotoxicity HepG2
# Source text: as §1, §2
# [5] = test system: DLD-1; assay: SRB cytotoxicity assay, DLD-1; type: cell-based; settings: Homo sapiens, read-out: IC50 Cytotoxicity DLD-1
# Source text: as §1, §2
# [6] = SRB cytotoxicity assay, hepatocyte HL-7702; type: cell-based, human; settings: SRB assay, 48 h, human hepatocyte, mean ± SD, read-out: IC50 Cytotoxicity HL-7702
# Source text: as §1, §2
# [7] = target: T1, DNA Topo I (Homo sapiens, UniProt P11387); assay: Topo I inhibition assay (DNA relaxation assay); type: biochemical; settings: for IC50: DNA relaxation assay, pBR322, mean ± SD; for inhibition at 400 µM: read-out: percentage inhibition on Topo I activity
# T1 construct: purchased ThermoFisher, Waltham, MA, USA
# T1 sequence (P11387 1-765): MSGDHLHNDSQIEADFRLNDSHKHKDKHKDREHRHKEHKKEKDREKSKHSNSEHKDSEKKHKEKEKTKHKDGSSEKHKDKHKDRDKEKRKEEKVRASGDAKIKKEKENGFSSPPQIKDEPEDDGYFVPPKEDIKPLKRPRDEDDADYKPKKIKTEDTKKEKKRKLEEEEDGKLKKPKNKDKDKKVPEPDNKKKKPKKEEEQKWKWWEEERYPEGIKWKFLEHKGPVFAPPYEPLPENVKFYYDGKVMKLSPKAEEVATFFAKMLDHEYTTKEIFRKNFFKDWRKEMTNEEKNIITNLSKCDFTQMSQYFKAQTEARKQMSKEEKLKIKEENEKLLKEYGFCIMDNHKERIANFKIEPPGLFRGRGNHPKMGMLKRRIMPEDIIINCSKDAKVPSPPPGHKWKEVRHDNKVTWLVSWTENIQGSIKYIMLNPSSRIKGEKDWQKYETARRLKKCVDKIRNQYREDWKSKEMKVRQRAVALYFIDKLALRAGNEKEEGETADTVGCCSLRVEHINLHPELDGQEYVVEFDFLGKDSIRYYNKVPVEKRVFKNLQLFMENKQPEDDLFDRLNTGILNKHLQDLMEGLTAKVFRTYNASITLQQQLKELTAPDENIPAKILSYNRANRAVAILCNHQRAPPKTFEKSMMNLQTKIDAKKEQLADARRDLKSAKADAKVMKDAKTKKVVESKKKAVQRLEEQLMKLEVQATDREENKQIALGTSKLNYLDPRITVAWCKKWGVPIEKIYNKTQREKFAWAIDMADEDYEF
# Method: The DNA relaxation assay was adopted to investigate the compounds’ inhibitory activities on Topo I. Different concentrations of the compounds, dissolved and diluted in DMSO, were added into the relaxation buffer (50 mM Tris, pH 7.5, 50 mM KCl, 10 mM MgCl2, 0.1 mM EDTA, 0.5 Mm dithiothreitol, and 0.05 mg/mL bovine serum albumin) containing 0.2 U Topo I (ThermoFisher, Waltham, MA, USA) and incubated at room temperature for 10 min. After that, 500 ng supercoiled pBR322 plasmid DNA (ThermoFisher, Waltham, MA, USA) was added and then incubated at 37 °C for another 30 min. Finally, the reactions were stopped with a stopping solution (5% sodium dodecyl sulfate, 0.0025% bromophenol blue, and 25% glycerol), and the mixtures were applied onto 0.8% agarose gel and subjected to electrophoresis for 1.5 h in Tris-Acetate-EDTA buffer. After being stained with GelRed (Biotium, Fremont, CA, USA), the gel was imagined with the imaging system (Biotop, Shanghai, China). […] The band density of the supercoiled DNA was quantified by the ImageJ software (version 1.53a, National Institutes of Health, Bethesda, MD, USA), and the inhibition activity is expressed as the percentage inhibition and calculated by formula: Inhibition % = [(A − B)/(C − B)] × 100%, where A is the band density of the tested samples, B is the band density of the negative control, and C is the band density of the blank control.
# [8] = SRB cytotoxicity assay, panel of five human cancer cell lines and one human hepatocyte cell line; settings: human
# Method: (§3) The cytotoxicities of 1–29 were tested by an SRB assay on a panel of five human cancer cell lines and one human hepatocyte cell line.
# (§4) The cytotoxic activities of the compounds against cancer cells were examined with a sulforhodamine B (SRB) colorimetric assay. Cells were seeded at a density of 5 × 10^3/well in 96-well plates for 24 h; various concentrations of the tested compounds, dissolved in DMSO and diluted with the complete medium, were added in the wells in triplicate and incubated for 48 h. After that, the cell viability was assessed with the SRB assay as we described before. The IC50 values were determined using the Reed and Muench method and are expressed as the mean ± SD of at least three independent measurements.
# [9] = test system: DLD-1 cells; assay: DNA content analysis (cell cycle, flow cytometry) in DLD-1; type: cell-based, human; settings: 24 h; for percentage of cell population in the G2/M phase / percentage of cells in the G1/S (combined) phase: DLD-1, 2 μM
# Method: Cells were seeded in 6-well plates and allowed to adhere for 24 h at 37 °C. After treatment with different concentrations of the samples for another 24 h, the cells were harvested and washed with PBS, and then, the DNA content analysis was conducted with a cell cycle staining kit (Multi sciences, Hangzhou, China), according to the manufacturer’s instructions. The fluorescence intensity of the cells was measured by flow cytometry (Beckman CytoFlex, Miami, FL, USA).
# [10] = test system: A549, HCT116, MDA-MB-231, HepG2, DLD-1, HL-7702; assay: SRB cytotoxicity assay, panel of five human cancer cell lines and one human hepatocyte cell line; settings: tested concentration of 200 μM
# Method: as §3, §4
# [11] = A549, SRB assay, 48 h, mean ± SD
# [12] = HCT-116, SRB assay, 48 h, mean ± SD
# [13] = MDA-MB-231, SRB assay, 48 h, mean ± SD
# [14] = HepG2, SRB assay, 48 h, mean ± SD
# [15] = DLD-1, SRB assay, 48 h, mean ± SD
SMILES,IC50 [7] [µM],inhibition at 400 µM [7] [%],"IC50 [1, 11] [µM]","IC50 [2, 12] [µM]","IC50 [3, 13] [µM]","IC50 [4, 14] [µM]","IC50 [5, 15] [µM]",IC50 at 48 h ([6]; HL-7702 hepatocyte cell line) [µM],IC50 at 48 h [8] [µM],"percentage of cells in the G1/S phase ([9]; DLD-1, 0.5 μM) [%]","percentage of cells in the G1/S phase ([9]; DLD-1, 1 μM) [%]",percentage of cell population in the G2/M phase [9] [%],percentage of cells in the G1/S (combined) phase [9] [%],cytotoxicity in all cell lines [10],"IC50 ([1]; A549, 48 h) [µM]","IC50 ([2]; HCT-116, 48 h) [µM]","IC50 ([3]; MDA-MB-231, 48 h) [µM]","IC50 ([4]; HepG2, 48 h) [µM]","IC50 ([5]; DLD-1, 48 h) [µM]",IC50 at 48 h [6] [µM]
CC#CC#CC#CC=CC1OCCCC1OC(C)=O (stereo not drawn) [Compound 24],218 ± 50.8,–,–,–,–,–,–,–,–,–,–,–,–,no cytotoxicity,> 200,> 200,> 200,> 200,> 200,> 200
CC#CC#CC#C/C=C/CCC(CCO)O[C@@H]1O[C@H](CO)[C@@H](O)[C@H](O)[C@H]1O (stereo partly drawn) [Compound 25],> 400,–,–,–,–,–,–,–,–,–,–,–,–,–,174 ± 12.3,162 ± 15.8,> 200,> 200,187 ± 17.4,> 200
CC#CC#CC#C/C=C/CCC(CO)O[C@@H]1O[C@H](CO)[C@@H](O)[C@H](O)[C@H]1O (stereo partly drawn) [Compound 26],> 400,–,188 ± 15.8,> 200,> 200,> 200,> 200,> 200,–,–,–,–,–,–,–,–,–,–,–,–
CC#CC#CC#CC#CCCC(CO)O[C@@H]1O[C@H](CO)[C@@H](O)[C@H](O)[C@H]1O (stereo partly drawn) [Compound 27],> 400,–,188 ± 14.9,112 ± 6.59,164 ± 11.7,> 200,144 ± 7.36,> 200,–,–,–,–,–,–,–,–,–,–,–,–
C=C[C@H](O)[C@H](/C=C/C#CC#CC#CC)O[C@@H]1O[C@H](CO)[C@@H](O)[C@H](O)[C@H]1O [Compound 28],> 400,–,190 ± 12.1,> 200,> 200,> 200,> 200,> 200,–,–,–,–,–,–,–,–,–,–,–,–
C=CCCCCC[C@H](O)[C@@H](O)[C@H](C#CC#CCCC)OC [Compound 29],> 400,–,–,–,–,–,–,–,–,–,–,–,–,no cytotoxicity,> 200,> 200,> 200,> 200,> 200,> 200

# Continued, in another order:
IC50 [7] [µM],inhibition at 400 µM [7] [%],SMILES,"IC50 [1, 11] [µM]","IC50 [2, 12] [µM]","IC50 [3, 13] [µM]","IC50 [4, 14] [µM]","IC50 [5, 15] [µM]",IC50 at 48 h ([6]; HL-7702 hepatocyte cell line) [µM],IC50 at 48 h [8] [µM],"percentage of cells in the G1/S phase ([9]; DLD-1, 0.5 μM) [%]","percentage of cells in the G1/S phase ([9]; DLD-1, 1 μM) [%]",percentage of cell population in the G2/M phase [9] [%],percentage of cells in the G1/S (combined) phase [9] [%],cytotoxicity in all cell lines [10],"IC50 ([1]; A549, 48 h) [µM]","IC50 ([2]; HCT-116, 48 h) [µM]","IC50 ([3]; MDA-MB-231, 48 h) [µM]","IC50 ([4]; HepG2, 48 h) [µM]","IC50 ([5]; DLD-1, 48 h) [µM]",IC50 at 48 h [6] [µM]
> 400,24.6,COc1ccc(/C=C/C(=O)c2ccc(OC)cc2O)cc1 [Compound 3],136 ± 25,178 ± 6.11,167 ± 5.63,> 200,117 ± 11.6,> 200,≥ 50.5,–,–,–,–,–,–,–,–,–,–,–
239 ± 31.4,–,COc1ccc(-c2oc3c(O)c(OC)c(O)cc3c(=O)c2OC)cc1O [Compound 6],3.09 ± 0.28,0.59 ± 0.1,> 200,34.6 ± 8.01,1.58 ± 0.07,23.9 ± 5.73,–,82.61,88.65,76.49,22.91,–,–,–,–,–,–,–
224 ± 27.2,–,COc1cc(-c2oc3cc(O)c(OC)c(O)c3c(=O)c2OC)ccc1O [Compound 7],0.86 ± 0.03,0.43 ± 0.03,81.6 ± 7.43,28.4 ± 13.1,0.85 ± 0.02,11.4 ± 4.42,–,81.16,86.07,75.75,24.26,–,–,–,–,–,–,–
> 400,28.6,O=c1c(O[C@@H]2O[C@H](CO)[C@H](O)[C@H](O)[C@H]2O)c(-c2ccc(O)cc2)oc2cc(O)cc(O)c12 [Compound 11],> 200,> 200,> 200,> 200,> 200,> 200,–,–,–,–,–,no cytotoxicity,–,–,–,–,–,–
> 400,38.6,COc1ccc(-c2oc3cc(O[C@@H]4O[C@H](CO)[C@@H](O)[C@H](O)[C@H]4O)cc(O)c3c(=O)c2OC)cc1O [Compound 13],> 200,139 ± 11.3,> 200,> 200,179 ± 5.94,> 200,≥ 50.5,–,–,–,–,–,–,–,–,–,–,–
